# According to ChEMBL document CHEMBL3991601, “The target landscape of clinical kinase drugs” (Science, 2017):
# Active and inactive are the calls of the source.
# Target: Serine/threonine-protein kinase B-raf (Homo sapiens, UniProt P15056)
# Also: in the data inactive means no Kd found up to 30 µM.
# Serine/threonine-protein kinase B-raf, sequence (P15056 whole entry): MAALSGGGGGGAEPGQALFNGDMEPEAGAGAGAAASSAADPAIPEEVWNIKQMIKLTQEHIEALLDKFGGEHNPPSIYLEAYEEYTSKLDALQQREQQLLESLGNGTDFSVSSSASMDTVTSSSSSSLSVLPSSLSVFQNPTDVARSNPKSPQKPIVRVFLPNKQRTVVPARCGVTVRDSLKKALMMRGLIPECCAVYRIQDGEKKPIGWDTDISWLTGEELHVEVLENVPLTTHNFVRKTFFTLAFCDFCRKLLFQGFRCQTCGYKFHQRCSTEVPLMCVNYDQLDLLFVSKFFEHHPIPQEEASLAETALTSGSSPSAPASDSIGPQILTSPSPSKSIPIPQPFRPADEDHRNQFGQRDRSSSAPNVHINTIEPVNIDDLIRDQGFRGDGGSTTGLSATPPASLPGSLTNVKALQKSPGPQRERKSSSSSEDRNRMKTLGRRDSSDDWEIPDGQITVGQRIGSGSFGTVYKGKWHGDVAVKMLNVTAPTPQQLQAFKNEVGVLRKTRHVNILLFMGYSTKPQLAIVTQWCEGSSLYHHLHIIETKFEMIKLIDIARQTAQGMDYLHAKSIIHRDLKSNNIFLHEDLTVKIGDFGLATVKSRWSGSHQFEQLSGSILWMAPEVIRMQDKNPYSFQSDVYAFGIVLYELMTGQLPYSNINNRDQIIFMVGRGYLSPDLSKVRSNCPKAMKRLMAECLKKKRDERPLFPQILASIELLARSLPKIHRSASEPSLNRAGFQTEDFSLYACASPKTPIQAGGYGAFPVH
row,SMILES,Kd
1,C[C@@H](c1ccc2nccn2c1)n1nnc2ncc(-c3cnn(C)c3)nc21 [SAVOLITINIB],> 30 µM (inactive)
2,O=C(Nc1ccc(-c2ccnc(Nc3ccc(N4CCOCC4)cc3)n2)cc1)C1CCCN1 (stereo not drawn) [XL-019],> 30 µM (inactive)

# Target: T1, NUAK family SNF1-like kinase 2 (Homo sapiens, UniProt Q9H093)
# T1 sequence (Q9H093 whole entry): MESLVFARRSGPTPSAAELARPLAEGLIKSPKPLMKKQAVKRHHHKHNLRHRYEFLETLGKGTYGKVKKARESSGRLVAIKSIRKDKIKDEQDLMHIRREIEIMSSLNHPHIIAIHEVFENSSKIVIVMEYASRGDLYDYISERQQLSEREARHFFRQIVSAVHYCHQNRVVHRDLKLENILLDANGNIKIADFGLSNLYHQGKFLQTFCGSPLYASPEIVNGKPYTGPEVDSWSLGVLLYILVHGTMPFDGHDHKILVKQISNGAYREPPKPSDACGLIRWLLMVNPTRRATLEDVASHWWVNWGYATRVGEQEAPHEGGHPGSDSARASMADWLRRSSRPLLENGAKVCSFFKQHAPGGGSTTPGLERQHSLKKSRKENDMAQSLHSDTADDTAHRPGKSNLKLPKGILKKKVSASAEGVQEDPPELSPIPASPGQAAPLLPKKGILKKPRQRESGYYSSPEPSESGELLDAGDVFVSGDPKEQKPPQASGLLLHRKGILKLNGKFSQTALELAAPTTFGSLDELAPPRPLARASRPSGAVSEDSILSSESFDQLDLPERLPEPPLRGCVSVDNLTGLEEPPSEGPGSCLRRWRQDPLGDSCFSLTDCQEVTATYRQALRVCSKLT
row,SMILES,Kd
1,COC(=O)N[C@@H](C)CNc1nccc(-c2cn(C(C)C)nc2-c2cc(Cl)cc(NS(C)(=O)=O)c2F)n1 [ENCORAFENIB],> 30 µM (inactive)
2,COc1cc2nccc(Oc3ccc(NC(=O)NC4CC4)c(Cl)c3)c2cc1C(N)=O [LENVATINIB],> 30 µM (inactive)
3,CNC(=O)c1cc(Oc2ccc(NC(=O)Nc3ccc(Cl)c(C(F)(F)F)c3)c(F)c2)ccn1 [REGORAFENIB],> 30 µM (inactive)
4,C[C@@H](c1ccc2nccn2c1)n1nnc2ncc(-c3cnn(C)c3)nc21 [SAVOLITINIB],> 30 µM (inactive)
5,O=C(Nc1cccc(Cl)c1)Nc1ncc(CCNc2ncnc3ccsc23)s1 [SNS-314],> 30 µM (inactive)
6,COc1cc2nccc(Oc3ccc(NC(=O)Nc4cc(C)on4)c(Cl)c3)c2cc1OC [TIVOZANIB],> 30 µM (inactive)
7,CCCS(=O)(=O)Nc1ccc(F)c(C(=O)c2c[nH]c3ncc(-c4ccc(Cl)cc4)cc23)c1F [VEMURAFENIB],> 30 µM (inactive)
8,O=C(Nc1ccc(-c2ccnc(Nc3ccc(N4CCOCC4)cc3)n2)cc1)C1CCCN1 (stereo not drawn) [XL-019],> 30 µM (inactive)

# Target: DNA topoisomerase 2-beta (Homo sapiens, UniProt Q02880)
# Sequence (Q02880 whole entry): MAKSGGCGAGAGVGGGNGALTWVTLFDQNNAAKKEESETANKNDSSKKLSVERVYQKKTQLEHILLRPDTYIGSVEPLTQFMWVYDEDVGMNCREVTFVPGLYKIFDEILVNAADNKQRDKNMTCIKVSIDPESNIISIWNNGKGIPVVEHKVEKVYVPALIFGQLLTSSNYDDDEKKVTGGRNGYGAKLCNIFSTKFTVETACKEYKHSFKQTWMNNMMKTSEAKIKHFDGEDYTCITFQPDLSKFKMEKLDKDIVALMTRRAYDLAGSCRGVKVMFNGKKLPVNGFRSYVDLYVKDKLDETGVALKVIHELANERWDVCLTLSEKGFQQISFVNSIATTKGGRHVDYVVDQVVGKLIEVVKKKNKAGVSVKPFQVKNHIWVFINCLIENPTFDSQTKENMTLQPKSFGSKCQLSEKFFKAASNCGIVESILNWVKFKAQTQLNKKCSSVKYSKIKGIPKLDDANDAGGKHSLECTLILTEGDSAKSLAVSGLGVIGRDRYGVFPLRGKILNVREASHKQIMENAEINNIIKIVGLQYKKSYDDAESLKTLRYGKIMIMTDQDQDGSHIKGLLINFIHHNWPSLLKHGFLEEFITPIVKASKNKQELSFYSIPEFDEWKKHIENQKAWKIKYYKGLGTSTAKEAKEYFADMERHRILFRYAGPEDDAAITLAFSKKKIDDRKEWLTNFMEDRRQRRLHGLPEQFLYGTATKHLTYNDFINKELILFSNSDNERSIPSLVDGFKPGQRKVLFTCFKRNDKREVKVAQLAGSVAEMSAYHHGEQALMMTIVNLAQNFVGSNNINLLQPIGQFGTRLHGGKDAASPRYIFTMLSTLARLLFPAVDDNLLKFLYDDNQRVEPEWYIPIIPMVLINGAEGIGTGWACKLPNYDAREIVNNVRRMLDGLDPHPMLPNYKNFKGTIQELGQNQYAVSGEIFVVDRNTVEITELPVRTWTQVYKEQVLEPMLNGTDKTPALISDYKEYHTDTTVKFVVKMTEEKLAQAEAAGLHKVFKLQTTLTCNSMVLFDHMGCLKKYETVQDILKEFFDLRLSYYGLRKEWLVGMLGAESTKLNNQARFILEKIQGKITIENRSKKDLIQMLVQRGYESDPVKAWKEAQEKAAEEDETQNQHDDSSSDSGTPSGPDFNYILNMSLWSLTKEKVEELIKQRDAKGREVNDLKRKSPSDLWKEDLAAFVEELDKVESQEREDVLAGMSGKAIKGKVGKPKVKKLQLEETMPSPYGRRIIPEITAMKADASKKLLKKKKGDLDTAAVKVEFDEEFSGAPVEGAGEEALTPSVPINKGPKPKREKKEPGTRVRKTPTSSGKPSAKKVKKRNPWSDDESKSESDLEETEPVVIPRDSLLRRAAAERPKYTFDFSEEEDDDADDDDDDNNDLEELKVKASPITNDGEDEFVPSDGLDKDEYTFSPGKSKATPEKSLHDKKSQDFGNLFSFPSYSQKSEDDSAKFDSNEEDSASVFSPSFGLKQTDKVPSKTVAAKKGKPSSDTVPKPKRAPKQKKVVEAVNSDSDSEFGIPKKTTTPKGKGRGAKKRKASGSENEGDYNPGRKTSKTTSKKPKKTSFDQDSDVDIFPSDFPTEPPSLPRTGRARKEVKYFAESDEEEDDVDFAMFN
row,SMILES,Kd
1,CN1CCN(c2ccc3nc(-c4c(N)c5c(F)cccc5[nH]c4=O)[nH]c3c2)CC1 [DOVITINIB],> 30 µM (inactive)
2,COC(=O)N[C@@H](C)CNc1nccc(-c2cn(C(C)C)nc2-c2cc(Cl)cc(NS(C)(=O)=O)c2F)n1 [ENCORAFENIB],> 30 µM (inactive)
3,CCn1c(-c2nonc2N)nc2c(C#CC(C)(C)O)ncc(OC[C@H]3CCCNC3)c21 [GSK-690693],> 30 µM (inactive)
4,COc1cc2nccc(Oc3ccc(NC(=O)NC4CC4)c(Cl)c3)c2cc1C(N)=O [LENVATINIB],> 30 µM (inactive)
5,Cc1cn(-c2cc(NC(=O)c3ccc(C)c(Nc4nccc(-c5cccnc5)n4)c3)cc(C(F)(F)F)c2)cn1 [NILOTINIB],> 30 µM (inactive)
6,CNC(=O)c1cc(Oc2ccc(NC(=O)Nc3ccc(Cl)c(C(F)(F)F)c3)c(F)c2)ccn1 [REGORAFENIB],> 30 µM (inactive)
7,O=C(Nc1cccc(Cl)c1)Nc1ncc(CCNc2ncnc3ccsc23)s1 [SNS-314],> 30 µM (inactive)
8,Nc1nc(N)c2nc(-c3cccc(O)c3)c(-c3cccc(O)c3)nc2n1 [TG100-115],> 30 µM (inactive)
9,COc1cc2nccc(Oc3ccc(NC(=O)Nc4cc(C)on4)c(Cl)c3)c2cc1OC [TIVOZANIB],> 30 µM (inactive)
10,CCCS(=O)(=O)Nc1ccc(F)c(C(=O)c2c[nH]c3ncc(-c4ccc(Cl)cc4)cc23)c1F [VEMURAFENIB],> 30 µM (inactive)
11,O=C(Nc1ccc(-c2ccnc(Nc3ccc(N4CCOCC4)cc3)n2)cc1)C1CCCN1 (stereo not drawn) [XL-019],> 30 µM (inactive)

# Target: T2, Acyl-CoA dehydrogenase family member 10 (Homo sapiens, UniProt Q6JQN1)
# T2 sequence (Q6JQN1 whole entry): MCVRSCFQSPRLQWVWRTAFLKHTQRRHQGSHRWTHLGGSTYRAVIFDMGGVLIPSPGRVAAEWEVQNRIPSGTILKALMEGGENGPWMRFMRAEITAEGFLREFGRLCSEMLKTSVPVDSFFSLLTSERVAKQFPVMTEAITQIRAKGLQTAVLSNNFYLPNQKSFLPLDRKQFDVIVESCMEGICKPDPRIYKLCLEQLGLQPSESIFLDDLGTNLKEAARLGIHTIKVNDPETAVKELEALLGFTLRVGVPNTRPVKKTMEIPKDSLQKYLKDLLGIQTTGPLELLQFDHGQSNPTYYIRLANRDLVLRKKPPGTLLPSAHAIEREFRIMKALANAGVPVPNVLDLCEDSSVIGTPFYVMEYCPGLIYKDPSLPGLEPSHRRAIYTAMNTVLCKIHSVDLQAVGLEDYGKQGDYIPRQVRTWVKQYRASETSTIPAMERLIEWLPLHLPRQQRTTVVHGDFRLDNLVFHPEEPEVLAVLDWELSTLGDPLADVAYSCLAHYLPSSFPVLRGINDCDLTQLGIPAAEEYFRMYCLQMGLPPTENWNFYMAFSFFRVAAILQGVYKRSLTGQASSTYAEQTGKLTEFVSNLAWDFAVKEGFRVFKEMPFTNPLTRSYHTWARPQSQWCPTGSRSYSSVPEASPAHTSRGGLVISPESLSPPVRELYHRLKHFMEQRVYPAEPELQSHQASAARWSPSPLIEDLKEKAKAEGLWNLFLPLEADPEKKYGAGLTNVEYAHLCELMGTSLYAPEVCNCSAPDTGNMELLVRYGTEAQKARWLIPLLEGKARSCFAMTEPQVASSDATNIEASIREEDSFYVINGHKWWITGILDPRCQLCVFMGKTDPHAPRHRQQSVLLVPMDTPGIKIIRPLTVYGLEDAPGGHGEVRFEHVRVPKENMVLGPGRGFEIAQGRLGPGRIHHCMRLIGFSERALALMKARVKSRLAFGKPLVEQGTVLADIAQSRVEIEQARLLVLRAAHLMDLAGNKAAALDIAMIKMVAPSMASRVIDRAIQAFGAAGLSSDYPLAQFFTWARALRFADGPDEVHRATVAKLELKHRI
row,SMILES,Kd
1,CN1CCN(c2ccc3nc(-c4c(N)c5c(F)cccc5[nH]c4=O)[nH]c3c2)CC1 [DOVITINIB],> 30 µM (inactive)
2,COC(=O)N[C@@H](C)CNc1nccc(-c2cn(C(C)C)nc2-c2cc(Cl)cc(NS(C)(=O)=O)c2F)n1 [ENCORAFENIB],> 30 µM (inactive)
3,CCn1c(-c2nonc2N)nc2c(C#CC(C)(C)O)ncc(OC[C@H]3CCCNC3)c21 [GSK-690693],> 30 µM (inactive)
4,COc1cc2nccc(Oc3ccc(NC(=O)NC4CC4)c(Cl)c3)c2cc1C(N)=O [LENVATINIB],> 30 µM (inactive)
5,Cc1cn(-c2cc(NC(=O)c3ccc(C)c(Nc4nccc(-c5cccnc5)n4)c3)cc(C(F)(F)F)c2)cn1 [NILOTINIB],> 30 µM (inactive)
6,CNC(=O)c1cc(Oc2ccc(NC(=O)Nc3ccc(Cl)c(C(F)(F)F)c3)c(F)c2)ccn1 [REGORAFENIB],> 30 µM (inactive)
7,C[C@@H](c1ccc2nccn2c1)n1nnc2ncc(-c3cnn(C)c3)nc21 [SAVOLITINIB],> 30 µM (inactive)
8,O=C(Nc1cccc(Cl)c1)Nc1ncc(CCNc2ncnc3ccsc23)s1 [SNS-314],> 30 µM (inactive)
9,COc1cc2nccc(Oc3ccc(NC(=O)Nc4cc(C)on4)c(Cl)c3)c2cc1OC [TIVOZANIB],> 30 µM (inactive)
10,CCCS(=O)(=O)Nc1ccc(F)c(C(=O)c2c[nH]c3ncc(-c4ccc(Cl)cc4)cc23)c1F [VEMURAFENIB],> 30 µM (inactive)
11,O=C(Nc1ccc(-c2ccnc(Nc3ccc(N4CCOCC4)cc3)n2)cc1)C1CCCN1 (stereo not drawn) [XL-019],> 30 µM (inactive)

# Target: Mitogen-activated protein kinase kinase kinase kinase 4 (Homo sapiens, UniProt O95819)
# Sequence (O95819 whole entry): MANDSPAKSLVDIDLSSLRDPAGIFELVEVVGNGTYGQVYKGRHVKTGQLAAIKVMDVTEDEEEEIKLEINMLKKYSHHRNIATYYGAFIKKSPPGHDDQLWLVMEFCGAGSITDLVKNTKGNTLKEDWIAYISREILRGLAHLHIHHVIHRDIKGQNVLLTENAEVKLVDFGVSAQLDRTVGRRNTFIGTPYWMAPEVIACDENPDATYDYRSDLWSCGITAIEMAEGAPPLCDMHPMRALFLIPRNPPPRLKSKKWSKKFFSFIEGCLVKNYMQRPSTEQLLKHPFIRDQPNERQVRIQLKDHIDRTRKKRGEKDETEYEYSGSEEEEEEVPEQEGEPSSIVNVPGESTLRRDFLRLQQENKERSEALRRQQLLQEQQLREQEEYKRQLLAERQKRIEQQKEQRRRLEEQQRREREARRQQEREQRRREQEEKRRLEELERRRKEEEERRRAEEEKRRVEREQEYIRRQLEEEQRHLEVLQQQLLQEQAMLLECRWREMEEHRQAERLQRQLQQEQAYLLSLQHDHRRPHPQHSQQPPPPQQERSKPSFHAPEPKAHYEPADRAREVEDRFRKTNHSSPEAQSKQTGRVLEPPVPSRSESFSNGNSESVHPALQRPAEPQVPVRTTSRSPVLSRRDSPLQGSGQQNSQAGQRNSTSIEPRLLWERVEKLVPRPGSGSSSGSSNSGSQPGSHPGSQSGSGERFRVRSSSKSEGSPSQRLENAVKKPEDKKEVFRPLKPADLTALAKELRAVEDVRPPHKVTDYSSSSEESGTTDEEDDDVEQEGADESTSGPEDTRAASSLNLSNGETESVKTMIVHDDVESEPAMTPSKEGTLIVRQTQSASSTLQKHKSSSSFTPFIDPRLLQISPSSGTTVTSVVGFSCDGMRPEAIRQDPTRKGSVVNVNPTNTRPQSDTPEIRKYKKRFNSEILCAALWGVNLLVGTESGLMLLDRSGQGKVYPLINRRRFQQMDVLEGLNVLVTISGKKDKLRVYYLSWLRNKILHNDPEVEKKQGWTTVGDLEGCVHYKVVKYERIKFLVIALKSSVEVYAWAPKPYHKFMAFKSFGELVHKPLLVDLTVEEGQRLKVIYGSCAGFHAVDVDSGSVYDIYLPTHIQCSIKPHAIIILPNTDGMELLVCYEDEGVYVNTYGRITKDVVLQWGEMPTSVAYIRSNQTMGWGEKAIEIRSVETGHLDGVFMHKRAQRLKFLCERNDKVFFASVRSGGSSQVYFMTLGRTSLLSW
row,SMILES,Kd
1,COC(=O)N[C@@H](C)CNc1nccc(-c2cn(C(C)C)nc2-c2cc(Cl)cc(NS(C)(=O)=O)c2F)n1 [ENCORAFENIB],> 30 µM (inactive)
2,COc1cc2nccc(Oc3ccc(NC(=O)NC4CC4)c(Cl)c3)c2cc1C(N)=O [LENVATINIB],> 30 µM (inactive)
3,CNC(=O)c1cc(Oc2ccc(NC(=O)Nc3ccc(Cl)c(C(F)(F)F)c3)c(F)c2)ccn1 [REGORAFENIB],> 30 µM (inactive)
4,C[C@@H](c1ccc2nccn2c1)n1nnc2ncc(-c3cnn(C)c3)nc21 [SAVOLITINIB],> 30 µM (inactive)
5,COc1cc2nccc(Oc3ccc(NC(=O)Nc4cc(C)on4)c(Cl)c3)c2cc1OC [TIVOZANIB],> 30 µM (inactive)
6,CCCS(=O)(=O)Nc1ccc(F)c(C(=O)c2c[nH]c3ncc(-c4ccc(Cl)cc4)cc23)c1F [VEMURAFENIB],> 30 µM (inactive)
7,O=C(Nc1ccc(-c2ccnc(Nc3ccc(N4CCOCC4)cc3)n2)cc1)C1CCCN1 (stereo not drawn) [XL-019],> 30 µM (inactive)

# Target: Fibroblast growth factor receptor 1 (Homo sapiens, UniProt P11362)
# Sequence (P11362 whole entry): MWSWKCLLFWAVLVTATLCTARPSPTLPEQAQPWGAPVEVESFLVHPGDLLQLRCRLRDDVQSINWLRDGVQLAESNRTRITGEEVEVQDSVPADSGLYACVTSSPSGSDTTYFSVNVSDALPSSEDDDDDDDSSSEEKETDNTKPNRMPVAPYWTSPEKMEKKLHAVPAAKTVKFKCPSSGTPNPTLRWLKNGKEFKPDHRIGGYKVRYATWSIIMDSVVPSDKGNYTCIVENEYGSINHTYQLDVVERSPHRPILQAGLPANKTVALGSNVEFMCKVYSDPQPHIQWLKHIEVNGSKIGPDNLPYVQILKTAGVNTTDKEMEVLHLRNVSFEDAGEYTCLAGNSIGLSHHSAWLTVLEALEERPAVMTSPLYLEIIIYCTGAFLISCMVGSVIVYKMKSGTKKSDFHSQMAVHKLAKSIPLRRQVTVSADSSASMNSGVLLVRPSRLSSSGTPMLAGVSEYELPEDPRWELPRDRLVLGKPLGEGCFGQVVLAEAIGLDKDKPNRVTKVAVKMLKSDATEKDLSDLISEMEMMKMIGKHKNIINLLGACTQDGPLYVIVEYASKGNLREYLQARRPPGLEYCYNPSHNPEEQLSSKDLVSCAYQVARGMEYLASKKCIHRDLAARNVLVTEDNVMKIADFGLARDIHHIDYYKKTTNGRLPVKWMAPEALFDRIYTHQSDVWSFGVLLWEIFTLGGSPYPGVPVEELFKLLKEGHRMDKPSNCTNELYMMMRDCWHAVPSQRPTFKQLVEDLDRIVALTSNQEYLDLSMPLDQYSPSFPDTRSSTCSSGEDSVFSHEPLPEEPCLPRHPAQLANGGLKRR
row,SMILES,Kd
1,COC(=O)N[C@@H](C)CNc1nccc(-c2cn(C(C)C)nc2-c2cc(Cl)cc(NS(C)(=O)=O)c2F)n1 [ENCORAFENIB],> 30 µM (inactive)
2,COc1cc2nccc(Oc3ccc(NC(=O)NC4CC4)c(Cl)c3)c2cc1C(N)=O [LENVATINIB],> 30 µM (inactive)
3,C[C@@H](c1ccc2nccn2c1)n1nnc2ncc(-c3cnn(C)c3)nc21 [SAVOLITINIB],> 30 µM (inactive)
4,CCCS(=O)(=O)Nc1ccc(F)c(C(=O)c2c[nH]c3ncc(-c4ccc(Cl)cc4)cc23)c1F [VEMURAFENIB],> 30 µM (inactive)
5,O=C(Nc1ccc(-c2ccnc(Nc3ccc(N4CCOCC4)cc3)n2)cc1)C1CCCN1 (stereo not drawn) [XL-019],> 30 µM (inactive)

# Target: T3, Serine/threonine-protein kinase 4 (Homo sapiens, UniProt Q13043)
# T3 sequence (Q13043 whole entry): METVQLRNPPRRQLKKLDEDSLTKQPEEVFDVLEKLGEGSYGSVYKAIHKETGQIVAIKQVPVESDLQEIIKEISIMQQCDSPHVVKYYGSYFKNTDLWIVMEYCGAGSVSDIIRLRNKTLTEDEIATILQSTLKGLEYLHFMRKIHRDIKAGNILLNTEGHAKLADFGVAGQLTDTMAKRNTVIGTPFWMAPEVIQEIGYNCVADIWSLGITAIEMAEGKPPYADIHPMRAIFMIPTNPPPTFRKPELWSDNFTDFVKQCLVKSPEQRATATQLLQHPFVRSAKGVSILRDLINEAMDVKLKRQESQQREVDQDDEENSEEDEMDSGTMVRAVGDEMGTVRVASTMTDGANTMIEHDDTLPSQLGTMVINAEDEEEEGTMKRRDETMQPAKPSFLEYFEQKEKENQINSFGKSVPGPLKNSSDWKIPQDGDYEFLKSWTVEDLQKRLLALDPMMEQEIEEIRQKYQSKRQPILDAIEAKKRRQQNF
row,SMILES,Kd
1,COC(=O)N[C@@H](C)CNc1nccc(-c2cn(C(C)C)nc2-c2cc(Cl)cc(NS(C)(=O)=O)c2F)n1 [ENCORAFENIB],> 30 µM (inactive)
2,COc1cc2nccc(Oc3ccc(NC(=O)NC4CC4)c(Cl)c3)c2cc1C(N)=O [LENVATINIB],> 30 µM (inactive)
3,CNC(=O)c1cc(Oc2ccc(NC(=O)Nc3ccc(Cl)c(C(F)(F)F)c3)c(F)c2)ccn1 [REGORAFENIB],> 30 µM (inactive)
4,C[C@@H](c1ccc2nccn2c1)n1nnc2ncc(-c3cnn(C)c3)nc21 [SAVOLITINIB],> 30 µM (inactive)
5,O=C(Nc1cccc(Cl)c1)Nc1ncc(CCNc2ncnc3ccsc23)s1 [SNS-314],> 30 µM (inactive)
6,COc1cc2nccc(Oc3ccc(NC(=O)Nc4cc(C)on4)c(Cl)c3)c2cc1OC [TIVOZANIB],> 30 µM (inactive)
7,CCCS(=O)(=O)Nc1ccc(F)c(C(=O)c2c[nH]c3ncc(-c4ccc(Cl)cc4)cc23)c1F [VEMURAFENIB],> 30 µM (inactive)
8,O=C(Nc1ccc(-c2ccnc(Nc3ccc(N4CCOCC4)cc3)n2)cc1)C1CCCN1 (stereo not drawn) [XL-019],> 30 µM (inactive)

# Target: LIM domain kinase 1 (Homo sapiens, UniProt P53667)
# Sequence (P53667 whole entry, the tested form may be a part): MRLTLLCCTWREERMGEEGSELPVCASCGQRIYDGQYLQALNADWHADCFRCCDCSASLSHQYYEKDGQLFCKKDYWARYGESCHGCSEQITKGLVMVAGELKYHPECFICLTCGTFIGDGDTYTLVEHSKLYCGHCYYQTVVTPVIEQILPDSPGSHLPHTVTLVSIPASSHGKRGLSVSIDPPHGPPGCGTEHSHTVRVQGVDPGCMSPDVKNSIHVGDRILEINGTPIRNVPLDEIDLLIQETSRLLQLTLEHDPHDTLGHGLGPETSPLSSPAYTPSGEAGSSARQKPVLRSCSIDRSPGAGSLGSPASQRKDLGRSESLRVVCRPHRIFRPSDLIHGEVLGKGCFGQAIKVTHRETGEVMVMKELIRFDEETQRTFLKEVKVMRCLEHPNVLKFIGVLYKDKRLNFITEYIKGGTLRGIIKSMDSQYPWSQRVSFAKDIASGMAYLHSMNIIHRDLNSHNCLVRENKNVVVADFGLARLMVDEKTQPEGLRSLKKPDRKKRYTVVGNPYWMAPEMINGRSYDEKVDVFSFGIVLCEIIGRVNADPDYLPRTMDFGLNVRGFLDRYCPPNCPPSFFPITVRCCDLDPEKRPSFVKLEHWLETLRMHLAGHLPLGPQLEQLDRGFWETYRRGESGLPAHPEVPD
row,SMILES,Kd
1,COC(=O)N[C@@H](C)CNc1nccc(-c2cn(C(C)C)nc2-c2cc(Cl)cc(NS(C)(=O)=O)c2F)n1 [ENCORAFENIB],0.026 µM (active)
2,COc1cc2nccc(Oc3ccc(NC(=O)NC4CC4)c(Cl)c3)c2cc1C(N)=O [LENVATINIB],> 30 µM (inactive)
3,CNC(=O)c1cc(Oc2ccc(NC(=O)Nc3ccc(Cl)c(C(F)(F)F)c3)c(F)c2)ccn1 [REGORAFENIB],0.616 µM (active)
4,C[C@@H](c1ccc2nccn2c1)n1nnc2ncc(-c3cnn(C)c3)nc21 [SAVOLITINIB],> 30 µM (inactive)
5,COc1cc2nccc(Oc3ccc(NC(=O)Nc4cc(C)on4)c(Cl)c3)c2cc1OC [TIVOZANIB],> 30 µM (inactive)
6,CCCS(=O)(=O)Nc1ccc(F)c(C(=O)c2c[nH]c3ncc(-c4ccc(Cl)cc4)cc23)c1F [VEMURAFENIB],> 30 µM (inactive)
